These results are taken from publication PMC9986249, “Comparative study on antibacterial characteristics of the multiple liver expressed antimicrobial peptides (LEAPs) in teleost fish” (Frontiers in Immunology, 2023).

Test [1] concerns Gram-positive and Gram-negative bacteria. Conditions: cited from earlier work. From the text:
Mammalian LEAP-2 is a single gene, which is mainly expressed by the liver, and to a certain extent by other tissues ([18]). For example, mouse LEAP-2 is mainly expressed in the liver and small intestine ([18]). […] Therefore, LEAP-2 may have other physiological functions besides sterilization. However, unlike mammals with a single LEAP-2 ...

Test [2] deals with V. fluvialis WY91-24-3. Briefly: Bacterial membrane permeability assay (PI influx, flow cytometry). Conditions: peptide 8 μM, 10 mM NaPB pH 7.4, 37°C, 1 h; PI 9 μM; flow cytometry, 3,000 events; representative of three independent experiments. Type of test: cell-based, Vibrio fluvialis. The method, then:
The membrane permeability of bacteria after the treatment of peptides was assessed by flow cytometry as previously described ([33]) with minor modifications. In brief, V. fluvialis WY91-24-3 were cultured to mid-logarithmic phase, then washed twice and resuspended to 10^6 CFU/ml with 10 mM NaPB (pH 7.4). Thereafter, 40 μl of peptides diluted in NaPB was added to 160 μl of V. fluvialis to give a final concentration of 8 μM. LL37 and NaPB was used as the positive and negative control, respectively. After being incubated at 37°C for 1 h, propidium iodide (PI; Sigma-Aldrich) was added to the bacterial suspension at a final concentration of 9 μM. The PI positive bacterial cells were detected using the flow cytometer FACSVerse (BD Biosciences) at 3,000 events and the data were analyzed using the FlowJo software v10 (Tree Star).
Figure 6 Antibacterial mechanisms of LEAPs. (A–J) Membrane permeability of V. fluvialis treated with LEAPs. The bacteria were incubated with LEAPs (8 μM) at 37°C for 1 h, and a bacterial suspension without peptide was included as a control (Ctrl). Then PI (9 μM) was added and the influx of PI was detected by flow cytometry. Data are representative results of three independent experiments. (K) The data in (A–J) were analyzed statistically. The p value was calculated by one-way ANOVA with a Dunnett post hoc test. Different letters indicate significant differences (p<0.05). […]

No end group written: not given here.

As for “cleaved form 44-77: cleaved form 44-77 of human LEAP-2 (GVSLRPIGASCRDDSECITRLCRKRRCSLSVAQE; ends and bridges not checked; cysteine pairing not given here; UniProt Q969E1 44-77, looked up, fragment)”, in test [1], the antibacterial activity result is on record as “loses antibacterial activity”.

With “LL-37: human AMP LL-37, positive control of the membrane permeability assay (LLGDFFRKSKEKIGKEFKRIVQRIKDFLRNLVPRTES; Antibacterial peptide LL-37; UniProt P49913 134-170, looked up)”, in test [2], the “PI positive bacterial cells” value came to 85.2%.

On to “mature peptide 38-77 of human LEAP-2: mature peptide 38-77 of human LEAP-2 (MTPFWRGVSLRPIGASCRDDSECITRLCRKRRCSLSVAQE; ends and bridges not checked; cysteine pairing not given here; UniProt Q969E1 38-77, looked up)”, for which the antibacterial activity result in test [1] is “different killing effects”.
